In patent publication US6620838B1, “Benzopyrazone compounds, compositions thereof, and methods of treatment therewith” (Signal Pharmaceuticals, Inc., priority 2002, dated 2003):

What was measured:
Type in all cases: cell-based
[1] = test system: IL-6 release from human U-2 OS osteosarcoma cells stably transfected with human ER-α or ER-β; experiment: Inhibition of IL-6 release; details: U2OS, U-2 OS cells with ER-α or ER-β (table does not say which), stimulated with 2.5 ng/ml TNFα and 1 ng/ml IL-1β, IL-6 ELISA after 24 h
Description: Illustrative benzopyranone compounds were tested for their ability to inhibit IL-6 release from human U-2 OS osteosarcoma cells stably transfected with human ER-α or ER-β. (Stein, B.; Yang, M. X. Mol. Cell. Biol 15: 4971-4979, 1995; Poli, V. et. al., EMBO J. 13:1189-1196, 1994). […] Benzopyranone compounds having an IC50<100 nM are particularly useful as bone resorption inhibitors in vivo. Accordingly, the compounds of this assay, illustrative benzopyranone compounds, are particularly useful for the treatment of osteoporosis, Paget's disease and metastatic bone cancer. These compounds are also useful as anti-cancer agents as elevated IL-6 levels are responsible for certain cancers such as multiple myeloma, prostate cancer, ovarian cancer, renal carcinoma and cervical carcinoma.
Human U-2 OS osteosarcoma cells (ATCC) were stably transfected with expression vectors for human full-length ER-α or ER-β, respectively, using standard molecular biology techniques. Stable subclones were generated that expressed high levels of ER-α or ER-β mRNA. The expression of ER-α and ER-β was confirmed using RNase protection analysis.
Cells were plated into 96-well plates at a density of 80,000 cells per well in phenol red-free media with charcoal-stripped fetal calf serum. Twenty four hours later, cells were either treated with vehicle (0.2% DMSO) or test compound ([…] in 0.2% DMSO). Thirty minutes later cells were stimulated with 2.5 ng/ml TNFα and 1 ng/ml IL-1β. Twenty-four hours later the media supernatant was analyzed for cytokine production (IL-6) using commercially available ELISA kits following the manufacturer's instructions. Cytokine production in the presence of vehicle (0.2% DMSO) was set to 100%. The results are expressed as IC50 (nM) values (Table 2) which is the concentration of the benzopyranone compound necessary to inhibit the production of IL-6 50% relative to the amount of IL-6 produced in the presence of vehicle.

[2] = test system: MCF-7 breast cancer cells; experiment: Inhibition of MCF-7 breast cancer cell proliferation; details: Homo sapiens, MCF7; 17β-estradiol (0.1 nM)-dependent growth, 72 h, 3H-thymidine incorporation
Description: MCF-7 cells represent an excellent in vitro system to study the effects of compounds on estrogen-dependent breast cancer growth. (May, F. E. B.; Westley, B. R. J. Biol. Chem. 262:15894-15899, 1987). Benzopyranone compounds having an IC50<100 nM are particularly useful as anti-breast cancer agents in vivo.
MCF-7 breast carcinoma cells were plated in 24-well dishes at a density of 5×10^3 cells/well in phenol-red free DMEM:F-12 (1:1) medium containing 1% antibiotics, 0.05% mercaptoethanol, 0.01% ethanolamine, 0.42 ng/mL sodium selenite and 5% charcoal-stripped FCS.
Illustrative benzopyranone compounds (0.1-1000 nM in 0.2% DMSO) and 0.1 nM 17β-estradiol were added to the cultured MCF-7 breast cancer cells for 72 h. Subsequently, ^3H-labeled thymidine was added and its incorporation into cells was measured following 4 h incubation. The results are expressed as IC50 (nM) values (Table 2) which is the concentration of the benzopyranone compound necessary to inhibit the growth of MCF-7 breast cancer cells by 50% relative to controls.

[3] = test system: BG-1 ovarian carcinoma cells; experiment: Inhibition of BG-1 ovarian carcinoma cell proliferation; details: 17β-estradiol (0.1 nM)-dependent growth, 72 h, 3H-thymidine incorporation
Description: BG-1 cells serve as a useful in vitro model for the evaluation of the effects of antiestrogenic compounds on ovarian tumor growth (Greenberger, L. M. et. al., Clin. Cancer Res. 7:3166-3177, 2001). Benzopyranone compounds having an IC50<100 nM are particularly useful as anti-ovarian cancer agents in vivo.
BG-1 ovarian carcinoma cells were plated in 24-well dishes at a density of 5×10^3 cells/well in phenol-red free DMEM:F-12 (1:1) medium containing 1% antibiotics, 0.05% mercaptoethanol, 0.01% ethanolamine, 0.42 ng/mL sodium selenite and 5% charcoal-stripped FCS. Illustrative benzopyranone compounds (0.1-1000 nM in 0.2% DMSO) and 0.1 nM 17β-estradiol were added to the cultured BG-1 ovarian carcinoma cells and incubated for 72 h. Subsequently, ^3H-labeled thymidine was added and its incorporation into cells was measured following 4h incubation. The results are expressed as IC50 (nM) values (Table 2) which is the concentration of the benzopyranone compound necessary to inhibit the growth of BG-1 ovarian carcinoma cells by 50% relative to controls.

SMILES | IC50 [1] | IC50 [2] | IC50 [3]
O=c1oc2cc(O)ccc2c(Cc2ccc(OCCN3CCCC3)cc2)c1-c1ccc(C(F)(F)F)cc1C(F)(F)F | 0.41 nM | 19 nM | 6.6 nM
O=c1oc2cc(O)ccc2c(Cc2ccc(OCCN3CCCC3)cc2)c1-c1ccc(Cl)cc1C(F)(F)F | 0.45 nM | 4.1 nM | 3.2 nM
O=c1oc2cc(O)ccc2c(Cc2ccc(OCCN3CCCC3)cc2)c1-c1ccc(Cl)cc1Cl | 0.32 nM | 5.4 nM | 0.69 nM

The next lines start with the values.

IC50 [1] | IC50 [2] | IC50 [3] | SMILES
1.45 nM | 15.8 nM | 9.35 nM | C=C/C(=C\C=C\OCCN1CCCC1)Cc1c(-c2ccc(C(F)(F)F)cc2)c(=O)oc2cc(O)ccc12
0.4 nM | 5.5 nM | 3.4 nM | O=c1oc2cc(O)ccc2c(Cc2ccc(OCCN3CCCC3)cc2)c1-c1ccc(C(F)(F)F)cc1Cl
